Reference: US8445512B2, “Substituted quinoline-3-carboxamides as KCNQ2/3 modulators” (Gruenenthal GmbH, priority 2010, dated 2013)

Molecular target: T1, KCNQ2/3 channels (Homo sapiens, UniProt O43525+O43526)
T1 construct: expressed in transfected cells
Test: Fluorescence assay using a voltage sensitive dye (fluorimetry)
Type: cell-based
Conditions: CHO-K1 cells expressing KCNQ2/3 channels; for Emax: relative to retigabine = 100%, read-out: Fluorimetry % efficacy (retigabine = 100%)
Protocol: Method I. Fluorescence Assay Using a Voltage Sensitive Dye (Fluorimetry)
[…] CHO-K1 cells expressing KCNQ2/3 channels are cultivated adherently at 37° C., 5% CO2 and 95% humidity in cell culture bottles (e.g. 80 cm^2 TC flasks, Nunc) with DMEM-high glucose (Sigma Aldrich, D7777) including 10% FCS (PAN Biotech, e.g. 3302-P270521) or alternatively MEM Alpha Medium (1×, liquid, Invitrogen, #22571), 10% fetal calf serum (FCS) (Invitrogen, #10270-106, heat-inactivated) and the necessary selection antibiotics.
Before being sown out for the measurements, the cells are washed with 1×DPBS buffer Ca^2+/Mg^2+-free (e.g. Invitrogen, #14190-094) and detached from the bottom of the culture vessel by using Accutase (PAA Laboratories, #L11-007) (incubation with Accutase for 15 min at 37° C.). The cell number is determined using a CASY™ cell counter (TCC, Schärfe System). Depending on the optimal density for each individual cell line, 20,000-30,000 cells/well/100 μl are seeded onto 96-well Corning™ CellBIND™ assay plates (Flat Clear Bottom Black Polystyrene Microplates, #3340). Freshly seeded cells are then left to settle for one hour at room temperature, followed by incubation for 24 hours at 37° C., 5% CO2 and 95% humidity.
The voltage-sensitive fluorescent dye from the Membrane Potential Assay Kit (Red™ Bulk format part R8123 for FLIPR, MDS Analytical Technologies™) is prepared by dissolving the contents of one vessel Membrane Potential Assay Kit Red Component A in 200 ml of extracellular buffer (ES buffer, 120 mM NaCl, 1 mM KCl, 10 mM HEPES, 2 mM CaCl2, 2 mM MgCl2, 10 mM glucose; pH 7.4). After removal of the nutrient medium, the cells are washed once with 200 μl of ES buffer, then loaded for 45 min at room temperature in 100 μl of dye solution in the dark.
Fluorescence measurements are carried out in a BMG Labtech FLUOstar™, BMG Labtech NOVOstar™ or BMG Labtech POLARstar™ instrument (525 nm excitation, 560 nm emission, Bottom Read mode). After incubation with the dye, 50 μl of the test substances in the desired concentrations, or 50 μl of ES buffer for control purposes, are applied to the wells of the assay plate and incubated for 30 min at room temperature while being shielded from light. The fluorescence intensity of the dye is then measured for 5 min and the fluorescence value F1 of each well is thus determined at a given, constant time. 15 μl of a KCl solution are then added to each well (final concentration of potassium ions 92 mM). The change in fluorescence intensity is subsequently monitored until all the relevant values have been obtained (mainly 5-30 min). At a given time post KCl application, a fluorescence value F2 is determined, in this case at the time of the fluorescence peak.
For calculation, the fluorescence intensity F2 is corrected for the fluorescence intensity F1, and the activity (ΔF/F) of the target compound on the potassium channel is determined as follows:
In order to determine whether a substance has agonistic activity,
[formula] can be related to
[formula] of control wells.
[formula] is determined by adding to the well only the buffer solution instead of the test substance, determining the value F1K of the fluorescence intensity, adding the potassium ions as described above, and measuring a value F2K of the fluorescence intensity. F2K and F1K are then calculated as follows: […]
A substance has an agonistic activity on the potassium channel if
[formula] is greater than
Independently of the comparison of
[formula] it is possible to conclude that a target compound has agonistic activity if
[formula] increases dose dependently. Calculations of EC50 and IC50 values are carried out with the aid of ‘Prism v4.0’ software (GraphPad Software™) Method II. Low-Intensity Tail Flick Test (Rat)

Structure (SMILES) | EC50 [nM] | Emax [%]
CCCc1nc2cc(C(F)(F)F)ccc2c(C)c1C(=O)NCc1cccs1 [Example 1, 4-Methyl-2-propyl-N-(thiophen-2-yl-methyl)-7-(trifluoromethyl)-quinoline-3-carboxylic acid amide] | 160 | 140
CCCc1nc2cc(C(F)(F)F)ccc2c(C)c1C(=O)NCC1CCCCCC1 [Example 2, N-(Cycloheptyl-methyl)-4-methyl-2-propyl-7-(trifluoromethyl)-quinoline-3-carboxylic acid amide] | 327 | 104
CC(C)c1nc2cc(C(F)(F)F)ccc2cc1C(=O)NCc1cccc(F)c1 [Example 11, N-[(3-Fluorophenyl)-methyl]-2-isopropyl-7-(trifluoromethyl)-quinoline-3-carboxylic acid amide] | 246 | 166
CC(C)c1nc2cc(C(F)(F)F)ccc2cc1C(=O)NCc1ccc(F)cc1 [Example 12, N-[(4-Fluorophenyl)-methyl]-2-isopropyl-7-(trifluoromethyl)-quinoline-3-carboxylic acid amide] | 152 | 137
CC(C)(C)c1nc2cc(C(F)(F)F)ccc2cc1C(=O)NCc1cccc(F)c1 [Example 13, 2-tert-Butyl-N-[(3-fluorophenyl)-methyl]-7-(trifluoromethyl)-quinoline-3-carboxylic acid amide] | 829 | 125
CC(C)(C)c1nc2cc(C(F)(F)F)ccc2cc1C(=O)NCc1ccc(F)cc1 [Example 14, 2-tert-Butyl-N-[(4-fluorophenyl)-methyl]-7-(trifluoromethyl)-quinoline-3-carboxylic acid amide] | 738 | 144
Cc1c(C(=O)NCc2cccc(F)c2)c(CC(C)(C)C)nc2cc(C(F)(F)F)ccc12 [Example 18, 2-(2,2-dimethyl-propyl)-N-[(3-fluorophenyl)-methyl]-4-methyl-7-(trifluoromethyl)-quinoline-3-carboxylic acid amide] | 92 | 187
CCCc1nc2cc(C(F)(F)F)ccc2c(C)c1C(=O)NCCCC(C)(C)C [Example 22, N-(4,4-Dimethyl-pentyl)-4-methyl-2-propyl-7-(trifluoromethyl)-quinoline-3-carboxylic acid amide] | 185 | 277
CC(C)=Cc1nc2cc(C(F)(F)F)ccc2c(C)c1C(=O)NCc1cccc(F)c1 [Example 24, N-[(3-fluorophenyl)-methyl]-4-methyl-2-(2-methyl-prop-1-enyl)-7-(trifluoromethyl)-quinoline-3-carboxylic acid amide] | 162 | 171
CCc1nc2cc(C(F)(F)F)ccc2c(C)c1C(=O)NCc1ccc(F)c(C)c1 [Example 32, 2-Ethyl-N-[(4-fluoro-3-methyl-phenyl)-methyl]-4-methyl-7-(trifluoromethyl)-quinoline-3-carboxylic acid amide] | 317 | 133
CCc1nc2cc(C(F)(F)F)ccc2c(C)c1C(=O)NCc1ccc(C)c(F)c1 [Example 34, 2-Ethyl-N-[(3-fluoro-4-methyl-phenyl)-methyl]-4-methyl-7-(trifluoromethyl)-quinoline-3-carboxylic acid amide] | 312 | 139

Other lines, results leading:

EC50 [nM] | Emax [%] | Structure (SMILES)
93 | 138 | CCCc1nc2cc(C(F)(F)F)ccc2c(C)c1C(=O)NCc1cccc(F)c1 [Example 4, N-[(3-Fluorophenyl)-methyl]-4-methyl-2-propyl-7-(trifluoromethyl)-quinoline-3-carboxylic acid amide]
266 | 157 | CCc1nc2cc(C(F)(F)F)ccc2c(C)c1C(=O)NCc1ccc(F)cc1 [Example 5, 2-Ethyl-N-[(4-fluorophenyl)-methyl]-4-methyl-7-(trifluoromethyl)-quinoline-3-carboxylic acid amide]
2880 | 102 | Cc1c(C(=O)NCc2cccc(F)c2)c(CO)nc2cc(C(F)(F)F)ccc12 [Example 17, N-[(3-fluorophenyl)-methyl]-2-(hydroxymethyl)-4-methyl-7-(trifluoromethyl)-quinoline-3-carboxylic acid amide]
120 | 149 | Cc1c(C(=O)NCc2ccc(F)cc2)c(CC(C)(C)C)nc2cc(C(F)(F)F)ccc12 [Example 19, 2-(2,2-Dimethyl-propyl)-N-[(4-fluorophenyl)-methyl]-4-methyl-7-(trifluoromethyl)-quinoline-3-carboxylic acid amide]
49 | 185 | Cc1c(C(=O)NCc2cccc(F)c2)c(C2CCCC2)nc2cc(C(F)(F)F)ccc12 [Example 20, 2-Cyclopentyl-N-[(3-fluorophenyl)-methyl]-4-methyl-7-(trifluoromethyl)-quinoline-3-carboxylic acid amide]
223 | 178 | Cc1c(C(=O)NCc2ccc(F)cc2)c(C2CCCC2)nc2cc(C(F)(F)F)ccc12 [Example 21, 2-Cyclopentyl-N-[(4-fluorophenyl)-methyl]-4-methyl-7-(trifluoromethyl)-quinoline-3-carboxylic acid amide]
446 | 130 | C/C=C/c1nc2cc(C(F)(F)F)ccc2c(C)c1C(=O)NCc1cccc(F)c1 [Example 23, N-[(3-fluorophenyl)-methyl]-4-methyl-2-[(E)-prop-1-enyl]-7-(trifluoromethyl)-quinoline-3-carboxylic acid amide]
1850 | 40 | Cc1c(C(=O)NCc2cccc(F)c2)c(CN(C)C)nc2cc(C(F)(F)F)ccc12 [Example 31, 2-(dimethylaminomethyl)-N-[(3-fluorophenyl)-methyl]-4-methyl-7-(trifluoromethyl)-quinoline-3-carboxylic acid amide]
1020 | 121 | CCc1nc2cc(C#N)ccc2c(C)c1C(=O)NCc1cccc(F)c1 [Example 33, 7-Cyano-2-ethyl-N-[(3-fluorophenyl)-methyl]-4-methyl-quinoline-3-carboxylic acid amide]
578 | 97 | CCc1nc2cc(C#N)ccc2c(C)c1C(=O)NCc1ccc(F)cc1 [Example 35, 7-Cyano-2-ethyl-N-[(4-fluorophenyl)-methyl]-4-methyl-quinoline-3-carboxylic acid amide]
82 | 154 | Cc1c(C(=O)NCc2cccc(F)c2)c(CC(C)C)nc2cc(C(F)(F)F)ccc12 [Example 36, N-[(3-Fluorophenyl)-methyl]-4-methyl-2-(2-methyl-propyl)-7-(trifluoromethyl)-quinoline-3-carboxylic acid amide]
108 | 128 | Cc1c(C(=O)NCc2cccc(F)c2)c(C2CC2)nc2cc(C#N)ccc12 [Example 37, 7-Cyano-2-cyclopropyl-N-[(3-fluorophenyl)-methyl]-4-methyl-quinoline-3-carboxylic acid amide]
118 | 122 | Cc1c(C(=O)NCc2ccc(F)cc2)c(C2CC2)nc2cc(C#N)ccc12 [Example 38, 7-cyano-2-cyclopropyl-N-[(4-fluorophenyl)-methyl]-4-methyl-quinoline-3-carboxylic acid amide]
215 | 174 | Cc1c(C(=O)NCc2cccc(F)c2)c(C(C)C)nc2cc(C#N)ccc12 [Example 39, 7-Cyano-N-[(3-fluorophenyl)-methyl]-2-isopropyl-4-methyl-quinoline-3-carboxylic acid amide]
